Reference: patent publication US8383125B2, “Antimicrobial protein” (Agriculture Victoria Services Pty, Limited, priority 2006, dated 2013)
Where two headings read alike, the source gives them in different places. Where no end group is shown, it is not given here.

Legend:
Bacillus subtilis = type: cell-based; conditions: Table 1
[1] = tested on: Streptococcus equi equi (ATCC 9527); type: cell-based; conditions: Table 1
[2] = tested on: Candida albicans (ATCC 753); type: cell-based; conditions: Table 1
[3] = tested on: P. aeruginosa strain FADDI 001; type: cell-based, Pseudomonas aeruginosa; conditions: strain FADDI 001, 17 h
Procedure: (§1) The MIC values of SEQ ID NO: 2 and SEQ ID NO: 19 were also determined against a range of multidrug-resistant isolates, including clinical and laboratory strains. Peptides, maintained at −20° C. in solid form for storage purposes, were subsequently dissolved in 0.01% (v/v) acetic acid (Sigma-Aldrich) to a stock concentration of […]. The stock solutions were made fresh for each experiment. Eighteen (18) bacterial isolates obtained from the Facility for Anti-Infective Drug Development and Innovation, Victoria, Australia (FADDI) as listed in Table 2 were maintained as stock cultures in Tryptic Soya Broth plus 20% (v/v) glycerol at a temperature of −80° C., and subcultured onto Nutrient Agar for each experiment. MIC values were determined in cation-adjusted Mueller-Hinton broth (CAMHB) and Mueller-Hinton broth (MHB) using standard broth micro-dilution methods.

[4] = tested on: P. aeruginosa strain FADDI 002; type: cell-based, Pseudomonas aeruginosa; conditions: strain FADDI 002, 17 h
Procedure: as §1

[5] = tested on: P. aeruginosa strain FADDI 003; type: cell-based, Pseudomonas aeruginosa; conditions: strain FADDI 003, 17 h
Procedure: as §1

[6] = tested on: P. aeruginosa strain FADDI 004; type: cell-based, Pseudomonas aeruginosa; conditions: strain FADDI 004, 17 h
Procedure: as §1

[7] = tested on: A. baumannii strain FADDI 005 (ATCC 19606 derivative); type: cell-based, Acinetobacter baumannii; conditions: 17 hr at 35° C.
Procedure: as §1
Pseudomonas aeruginosa (ATCC 27853) and S. aureus (ATCC 43300) were included as quality controls in experiments. P. aeruginosa strains FADDI 001 and FADDI 002 are mucoid; and P. aeruginosa strains FADDI 003 and FADDI 004 are non-mucoid. P. aeruginosa strain FADDI 003 also has a small colony morphology. The A. baumannii strain FADDI 005 is a colistin-resistant isolate obtained from Mueller-Hinton agar containing 10 mg/L colistin.

[8] = tested on: A. baumannii strain FADDI 006; type: cell-based, Acinetobacter baumannii; conditions: strain FADDI 006, 17 h
Procedure: as §1

[9] = tested on: A. baumannii strain FADDI 007; type: cell-based, Acinetobacter baumannii; conditions: strain FADDI 007, 17 h
Procedure: as §1

[10] = tested on: K. pneumoniae strain FADDI 008; type: cell-based, Klebsiella pneumoniae; conditions: strain FADDI 008, 17 h
Procedure: as §1

[11] = tested on: K. pneumoniae strain FADDI 009; type: cell-based, Klebsiella pneumoniae; conditions: strain FADDI 009, 17 h
Procedure: as §1

[12] = tested on: K. pneumoniae strain FADDI 010; type: cell-based, Klebsiella pneumoniae; conditions: strain FADDI 010, 17 h
Procedure: as §1

[13] = tested on: Enterococcus faecium (ATCC 700221); type: cell-based; conditions: ATCC 700221, 17 h
Procedure: as §1

[14] = tested on: Staphylococcus aureus (ATCC 700698); type: cell-based; conditions: ATCC 700698, 17 h
Procedure: as §1

S. aureus (ATCC 43300) = type: cell-based, Staphylococcus aureus; conditions: ATCC 43300, 17 h
Procedure: as §1

S. aureus 700699 = type: cell-based, Staphylococcus aureus; conditions: 700699, 17 h
Procedure: as §1

[15] = tested on: S. aureus strain FADDI 011; type: cell-based, Staphylococcus aureus; conditions: strain FADDI 011, 17 h
Procedure: as §1

[16] = tested on: tammar wallaby erythrocytes; type: cell-based
Procedure: The toxicity of the antimicrobial peptides was determined using a haemolytic assay. In particular, the hemolytic activity of the peptides was determined using tammar wallaby erythrocytes. Fresh erythrocytes were harvested from heparinized blood taken from a tammar wallaby. Erythrocytes were harvested by centrifugation for 3 min at 3000 g. Erythrocytes were then washed three times with PBS (pH 7.4) until the supernatant was essentially colourless. 20 μl two fold serial dilutions of the peptide were mixed with the same volume of erythrocytes in solution 2%) in PBS of each well of a 96-plate. 80 μl PBS was added to each well after the plate was incubated at 37° C. for one hour. Plates were then centrifuged at 3000 g for 5 min. 90 μl of the resulting supernatant was transferred to a flat-bottom microtiter plate and haemoglobin release was monitored by measuring the absorbance at 414 nm with an ELISA plate reader. […] Each sample was performed in triplicate. Percentage hemolysis was calculated by the following formula: [(OD414 peptide−OD414 buffer)/OD414 complete hemolysis−OD414 buffer)]×100%.

E. coli DH5α = conditions: 5 μl of 250 μg/ml solutions of each peptide; E. coli
Procedure: Briefly, approximately 4×10^6 of mid-logarithmic-phase organisms were grown on plates in 11 ml of warm 0.8% agarose containing 0.03% (w/v) Tryticase soy broth (TSB) powder, with or without 100 mM NaCl, buffered with 10 mM sodium phosphate, pH 7.4. The test peptide was serially diluted in acidified water (0.01% acetic acid), and 5 μl of diluted peptide sample was loaded in a 2.5 diameter well in the agarose. A 10 ml overlay gel composed of 6% TSB, 0.8% agarose and 10 mM sodium phosphate buffer (pH 7.4) was poured into each well. Plates were then incubated overnight to allow the surviving organisms to form microcolonies. The clear zone were measured to the nearest 0.1 mm using a magnified transilluminator and expressed in units (1 mm=10 U) after subtracting the well diameter. The minimum inhibitory concentration (MIC) is defined by the χ intercept of a regression line through zone diameters obtained from a series of serially diluted peptide samples.

[17] = tested on: Pseudomonas aeruginosa (ATCC 27853); parameters: key: resistant (R); susceptible (S); conditions: Reference isolate; cited from earlier work
[18] = tested on: P. aeruginosa strain FADDI 001; parameters: key: resistant (R); susceptible (S); conditions: Clinical specimen; cited from earlier work
[19] = tested on: P. aeruginosa strain FADDI 002; parameters: key: resistant (R); susceptible (S); conditions: Clinical specimen; cited from earlier work
[20] = tested on: P. aeruginosa strain FADDI 003; parameters: key: resistant (R); susceptible (S); conditions: Clinical specimen; cited from earlier work
[21] = tested on: P. aeruginosa strain FADDI 004; parameters: key: resistant (R); susceptible (S); conditions: Clinical specimen; cited from earlier work
[22] = tested on: Acinetobacter baumannii (ATCC 19606); parameters: key: resistant (R); susceptible (S); conditions: Reference isolate; cited from earlier work
[23] = tested on: A. baumannii strain FADDI 005 (ATCC 19606 derivative); parameters: key: resistant (R); susceptible (S); conditions: Laboratory prepared; obtained from Mueller-Hinton agar containing 10 mg/L colistin; cited from earlier work
[24] = tested on: A. baumannii strain FADDI 006; parameters: key: resistant (R); susceptible (S); conditions: Clinical specimen; cited from earlier work
[25] = tested on: A. baumannii strain FADDI 007; parameters: key: resistant (R); susceptible (S); conditions: Clinical specimen; cited from earlier work
[26] = tested on: Klebsiella pneumoniae (ATCC 13883); parameters: key: resistant (R); susceptible (S); conditions: Reference isolate; cited from earlier work
[27] = tested on: K. pneumoniae strain FADDI 008; parameters: key: resistant (R); susceptible (S); conditions: Clinical specimen; cited from earlier work
[28] = tested on: K. pneumoniae strain FADDI 009; parameters: key: resistant (R); susceptible (S); conditions: Clinical specimen; cited from earlier work
[29] = tested on: K. pneumoniae strain FADDI 010; parameters: key: resistant (R); susceptible (S); conditions: Clinical specimen; cited from earlier work

KRGLWESLKRKATKLGDDIRNTLRNFKIKFPVPRQ-NH2 [SEQ ID NO: 19]
antimicrobial activity in words (Bacillus subtilis): moderately protective | antimicrobial activity in words [1]: moderately protective | antimicrobial activity in words [2]: Weaker antimicrobial activity | MIC [3]: >64 µg/mL | MIC [4]: >64 µg/mL | MIC [5]: >64 µg/mL | MIC [6]: >64 µg/mL | MIC ([7]; CAMHB (10.0 mg/L Mg2+ and 24 mg/L Ca2+)): 8 µg/mL | MIC ([7]; MHB (less than 5 mg/L Mg2+ and 24 mg/L Ca2+)): 16 µg/mL | MIC [8]: >64 µg/mL | MIC [9]: 16 µg/mL | MIC [10]: >64 µg/mL | MIC [11]: >64 µg/mL | MIC [12]: >64 µg/mL | MIC [13]: 16 µg/mL | MIC [14]: >64 µg/mL | MIC (S. aureus (ATCC 43300)): >64 µg/mL | MIC (S. aureus 700699): >64 µg/mL | MIC [15]: >64 µg/mL | haemolysis at the MIC determined in Example 1 [16]: less than 5% | haemolysis at the majority of concentrations tested (FIGS. 2a and 2b) [16]: did not cause substantial levels of haemolysis | radial clear zone compared to LL-37 (FIG. 3) (E. coli DH5α): larger radial clear zone

colistin
Colistin resistant (R) or susceptible (S) [17]: S | Colistin resistant (R) or susceptible (S) [18]: S | Colistin resistant (R) or susceptible (S) [19]: S | Colistin resistant (R) or susceptible (S) [20]: R | Colistin resistant (R) or susceptible (S) [21]: R | Colistin resistant (R) or susceptible (S) [22]: S | Colistin resistant (R) or susceptible (S) [23]: R | Colistin resistant (R) or susceptible (S) [24]: R | Colistin resistant (R) or susceptible (S) [25]: S | Colistin resistant (R) or susceptible (S) [26]: S | Colistin resistant (R) or susceptible (S) [27]: S | Colistin resistant (R) or susceptible (S) [28]: R | Colistin resistant (R) or susceptible (S) [29]: R
